Each structure is given as a SMILES string. A value given as a limit tells only on which side of the number the result lay.

The subject of data set [1] is Caco-2 cells. Kind of data set: Uptake into Caco-2 cell monolayers. In kind it is in vitro ADME, human.
A short description of data set [2]: MTT cytotoxicity assay. It counts as cell-based, human. The conditions noted are these: human, Caco-2 cells. Background: Tetrazolium assays rely on reduction of a dye to a coloured formazan, in cell work by metabolically active cells.
Data set [3] deals with Caco-2 cells. Kind of data set: MTT cytotoxicity assay. Particulars: 10–200 μg/mL. It counts as cell-based, human.
Data set [4] can be described thus: Bidirectional transport across Caco-2 cell monolayers. The conditions noted are these: human. It counts as in vitro ADME. Background: Caco-2 cells form a polarised layer with tight junctions and transporters.
For data set [5], the system named is Caco-2 cell homogenates. Nature of the data set: Degradation in Caco-2 cell homogenates. Particulars: 37°C, within 120 minutes. It counts as in vitro ADME, human.
Data set [6] has as its system Caco-2 cell monolayers. Nature of the data set: TEER of Caco-2 cell monolayers. It counts as cell-based, human. Particulars: Caco-2 monolayers; HM formulations 40 μg/mL, TMC 0.1% w/w.
For data set [7] the following is noted: mice, 60 mg/kg, within 1 hour.
Data set [8] can be described thus: In vivo pharmacokinetic study in rats. Further details: species or system Sprague Dawley rats.
Setting [9] is: Sprague Dawley, rat, plasma, po, 60 mg/kg.

As to `COc1ccc2c(c1)[nH]c1c(C)nccc12` [HM, Harmine], in data set [1], the “Effect of endocytosis inhibitor CPZ on uptake” value is reported as “did not affect”, the “Effect of energy inhibitor NaN3 on uptake” value is reported as “did not affect” and the “Effect of p-gp inhibitor CyA on uptake” value is given as “did not affect”. This compound registered a viability at 24 h, 200 μg/mL in data set [2] greater than 90%. Further, in data set [3], the “Toxicity to Caco-2 cells” value is given as “almost no toxicity”. In data set [4], this compound yielded a Papp at 2 h greater than 10 nm/s and a Papp at 2 h, 40 μg/mL of 51.1 ± 6.9 nm/s. For the same compound, the HM degraded entry in data set [5] was “more than 60%”. The “Reduction of TEER” value in data set [6] was “lower than 15%”. In data set [7], the “Decrease of retention amount in the stomach” value is given as “about 10%”. For the same compound, in data set [8] (Sprague Dawley, rat, plasma, iv, 20 mg/kg), the AUC was 12.9 ± 1.25 µg·h/mL. Besides, in data set [8] (setting [9]), the exposure (AUC) is 9.76 ± 2.34 µg·h/mL and the peak concentration (Cmax) worked out at 3.11 ± 0.32 µg/mL. In addition, in data set [8] (rats, IG 60 mg/kg versus HM IV 20 mg/kg), the “BA (oral bioavailability)” value is listed as 25.25±6.05%.

One may read the viability as a read-out of living cells in per cent, often relative to untreated cells. As a reminder, the Papp is the rate of passage across a membrane or cell layer, normalised by area and donor concentration. Lower therefore signals slow passage. By AUC is commonly meant the area under the concentration-time curve, a measure of exposure. A high value points to more exposure. A word on the Cmax: it is the peak of the concentration-time curve.

These data come from paper PMC4725628 (International Journal of Nanomedicine, 2016).
